Experimental data: patent US12616203B2, “Use of 3-isoxazolidinones compounds as selective herbicides” (FMC Corporation, priority 2014, dated 2026)

Legend:
weeds; Wheat and canola = experiment: Ex29 PRE greenhouse; type: in vivo; details: 28 DAT, weed, crop, rate in the words
Description: The tested weeds include Italian ryegrass (Lolium perenne. multiflorum, LOLMU), wild mustard (Sinapis arvensis, SINAR), annual bluegrass (Poa annua, POAAN), wild oat (Avena fatua, AVEFA), blackgrass (Alopecurus myosuroides, ALOMY), common lambsquarters (Chenopodium album, CHEAL), littleseed canarygrass (Phalaris minor, PHAMI), common chickweed (Stellaria media, STEME), corn poppy (Papaver rhoeas, PAPRH), redroot pigweed (Amaranthus retroflexus, AMARE), silky windgrass (Apera spica-venti, APSEV), wild buckwheat (Polygonum convolvulus, POLCO). The crops teased were Wheat and canola.
Treatments were applied before the emergence of Italian ryegrass, wild oat, wild buckwheat, blackgrass, littleseed canarygrass, common chickweed, common lambsquarters, corn poppy, silky windgrass, redroot pigweed, wild mustard, annual bluegrass, canola, and wheat. […] Flats were watered and fertilized routinely after treatment application.

weeds; Corn = experiment: Ex25 PRE greenhouse; type: in vivo; details: rate in the words
Description: The crop tested in this study was Corn.
2,4 DC-21 (36.7% CS) was applied PRE at 0, 125, 170, 210, or 250 g ai/ha alone or as a tank-mix with pyroxasulfone (KIH-485, 85% WP) at 0, 50, 65, 80, or 95 g ai/ha. Pyroxasulfone plus fluthiacet-methyl (Anthem™, 23.3%) applied at 169.9 g ai/ha, s-metolachlor (Dual II Magnum®, 82.4%) applied at 1389 g, and the tank-mix of mesotrione (Callisto®, 40%) at 123 g plus s-metolachlor (Dual II Magnum®, 82.4%) at 1252 g were included as a standards for comparison. […] Thereafter flats were watered and fertilized routinely.

Yellow nutsedge = experiment: Ex39 PRE 2,4-DC + pyroxasulfone + carfentrazone, % control 28 DAT, Colby
Black nightshade = experiment: Ex15 PRE 2,4-DC + S-metolachlor, % control 28 DAT, Colby; type: in vivo, Solanum nigrum
Description: The weeds tested in this study were redroot pigweed (Amaranthus retroflexus, AMARE), Jimsonweed (Datura stramonium, DATST), black nightshade (Solanum nigrum, SOLNI), large crabgrass (Digitaria sanguinalis, DIGSA), Pennsylvania smartweed (Polygonum pensylvanicum, POLPY), horseweed (Conyza canadensis, ERICA), wild buckwheat (Polygonum convolvulus, POLCO). The crop tested was Corn (var. Viking).
To determine PRE efficacy and corn injury, five rates of each 2,4 DC (36.7% CS) and S-metolachlor (Dual II Magnum®, 82.4%) were applied either alone or as tank-mix. 2,4 DC was applied at 0, 125, 170, 210, or 250 g ai/ha and S-metolachlor was applied at 0, 267, 534, 801, or 1070 g ai/ha. Additional treatments included application of premix of pyroxasulfone plus fluthiacet-methyl (Anthem™ 23.3%) at 169.9 g ai/ha and tank-mix of mesotrione (Callisto®, 40%) at 123 g plus S-metolachlor at 1252 g. Treatments were applied just after the planting of large crabgrass, Jimsonweed, black nightshade, redroot pigweed, Pennsylvania smartweed, horseweed, wild buckwheat, and corn.
Flats were watered and fertilized routinely after treatment application. Each treatment was replicated three times. […] Corn injury was rated for bleaching and stunting.

Morningglory sp. = experiment: Ex38 PRE 2,4-DC + pyroxasulfone, % control 28 DAT, Colby; type: in vivo, Ipomea spp
Description: (§1) Pyroxasulfone plus fluthiacet-methyl (ANTHEM™, 23.3%) applied at 165 g ai/ha was included as a standard for comparison. […] Thereafter flats were watered and fertilized routinely.

canola and wheat = experiment: Ex43 PRE crop safety; type: in vivo; details: crop and rate in the words
Cheat = experiment: Ex18 PRE 2,4-DC + clomazone, % control 28 DAT, Colby; type: in vivo, Bromus secalinus
Description: Additional treatments included application of metazachlor (Butisan®, 43.1%) at 750 g ai/ha, napropamide (Devrinol DF®, 50%) at 1260 g ai/ha, and dimethachlor (Teridox®, 48%) at 1000 g ai/ha. […] Treatments were applied just after the seeding of annual bluegrass, cheat, wild oat, quackgrass, field violet, blackgrass, littleseed canarygrass, silky windgrass, yellow foxtail, and goosegrass. […] Flats were watered and fertilized routinely after treatment application. Each treatment was replicated three times.

weeds; wheat, and corn = experiment: Ex38 PRE greenhouse; type: in vivo; details: rate in the words
Description: as §1

weeds = experiment: Ex16 PRE greenhouse; type: in vivo; details: weed and rate in the words
Description: To determine PRE efficacy, five levels of 2,4 DC (36.7% CS) 0, 125, 170, 210, or 250 g ai/ha and five levels of pyroxasulfone (KIH485-85WG) 0, 50, 65, 80, or 95 g ai/ha were applied either alone or as tank-mix. Additional treatments consisted of premix of pyroxasulfone plus fluthiacet-methyl (Anthem™ 23.3%) at 169.9 g ai/ha, S-metolachlor (Dual II Magnum, 82.4%) at 1388 g, and tank-mix of mesotrione (Callisto, 40%) at 123 g plus S-metolachlor at 1252 g. […] Treatments were applied before the emergence of black nightshade, giant foxtail, green foxtail, yellow foxtail, large crabgrass, kochia, redroot pigweed, common ragweed, and barnyardgrass.
Flats were watered and fertilized routinely after treatment application. Each treatment was replicated three times.

Common cocklebur = experiment: Ex37 PRE 2,4-DC + atrazine, % control 28 DAT, Colby; type: in vivo, Xanthium strumarium
Description: S-metolachlor (DUAL II MAGNUM®, 82.4%) at 525 g ai/h plus atrazine at 560 g ai/h was included as a standard for comparison. […] Thereafter flats were watered and fertilized routinely.

wheat = experiment: Ex40 POST 2,4-DC + metsulfuron-methyl, crop injury 7 DAT; type: in vivo
Description: Treatments were applied to barley and wheat crops.
Non-ionic surfactant (NIS) was added to all treatments at 0.5% v/v. All plant species were direct seeded into 3″ plastic pots using metro-mix as growth media. At treatment common lambsquarters was 1.75″, common chickweed was 2″, wild mustard was 2.25″, wild oat was 5.5″, wild buckwheat was 2-5″, Italian ryegrass was 2-3″, wheat was 5.5″ and barley was 4.5″ in height. Plants were watered well before application and not watered 24 h after application. Plants were watered and fertilized routinely after treatment application. Each treatment was replicated four times. Treated flats were placed in randomized block design in the greenhouse.

CC1(C)CON(Cc2ccc(Cl)cc2Cl)C1=O [2,4-DC, 2-(2,4-dichlorophenyl)methyl-4,4-dimethyl-3-isoxazolidinone]
weed control / crop safety in words (weeds; Wheat and canola): alone gave control of pigweed and Italian ryegrass at ≥200 g ai/ha, corn poppy and wild oat at 400 g, blackgrass at ≥100 g, and common chickweed at all rates | weed control / crop safety in words (weeds; Corn): applied alone controlled (≥85% injury) black nightshade at 170 g ai/ha, did not provide control of other weeds tested when applied alone at any rate, and was safe on corn at all rates | X (% control, 2,4-DC alone) (Yellow nutsedge; PRE, 2,4-DC 50 g ai/ha): 1% | X (% control, 2,4-DC alone) (Yellow nutsedge; PRE, 2,4-DC 100 g ai/ha): 3% | X (% control, 2,4-DC alone) (Yellow nutsedge; PRE, 2,4-DC 200 g ai/ha): 3% | X (Black nightshade; 2,4-DC alone 125 g ai/ha): 32% | X (Black nightshade; 2,4-DC alone 170 g ai/ha): 33% | X (Black nightshade; 2,4-DC alone 210 g ai/ha): 47% | X (Black nightshade; 2,4-DC alone 250 g ai/ha): 50% | X (% control, 2,4-DC alone) (Morningglory sp.; PRE, 2,4-DC 50 g ai/ha): 0% | X (% control, 2,4-DC alone) (Morningglory sp.; PRE, 2,4-DC 100 g ai/ha): 2% | X (% control, 2,4-DC alone) (Morningglory sp.; PRE, 2,4-DC 200 g ai/ha): 2% | crop safety in words (canola and wheat): alone was safe (≤10% injury) on canola at ≤200 g ai/ha and safe on wheat at ≤100 g | X (Cheat; 2,4-DC alone 125 g ai/ha): 6% | X (Cheat; 2,4-DC alone 170 g ai/ha): 11% | X (Cheat; 2,4-DC alone 210 g ai/ha): 12% | X (Cheat; 2,4-DC alone 250 g ai/ha): 25% | weed control / crop safety in words (weeds; wheat, and corn): applied alone at ≥50 g ai/ha controlled (≥85%) kochia, at ≥200 g controlled Italian ryegrass or redroot pigweed, and controlled velvetleaf at 400 g | weed control in words (weeds): alone controlled kochia at 210 g ai/ha, barnyardgrass and large crabgrass at 125 g, giant foxtail and green foxtail at 170 g | X (Common cocklebur; 2,4-DC alone 50 g ai/ha): 0% | X (Common cocklebur; 2,4-DC alone 100 g ai/ha): 7% | X (Common cocklebur; 2,4-DC alone 200 g ai/ha): 60% | X (% crop injury, 2,4-DC alone) (wheat; POST, 2,4-DC 125 g ai/ha): 5% | X (% crop injury, 2,4-DC alone) (wheat; POST, 2,4-DC 170 g ai/ha): 14% | X (% crop injury, 2,4-DC alone) (wheat; POST, 2,4-DC 210 g ai/ha): 17% | X (% crop injury, 2,4-DC alone) (wheat; POST, 2,4-DC 250 g ai/ha): 31%
